Assay results from patent publication USRE40246E1, “Method for the suppression of viral growth” (John Hopkins University, priority 1994, dated 2008).
Values joined by “and” are separate entries in the source; they are usually repeats but may differ in a detail not shown here. Equal entries are not always repeated. Where two headings read alike, the source gives them in different places.

Legend:
uninfected CEM-SS cells = assay: Soluble-formazan (XTT) assay, viability of uninfected CEM-SS cells; type: cell-based; conditions: Homo sapiens, read-out: IC50, inhibitory or toxic concentration reducing XTT formazan production in uninfected cultures to 50%
[1] = system: Tat regulated transactivation (Tat-TRS) of HIV-1 LTR promoter; assay: Secreted alkaline phosphatase (SEAP) assay for Tat transactivation in cotransfected COS cells; type: cell-based; conditions: for EC50: Human immunodeficiency virus 1, COS, 48 h; for Inhibition of Tat-induced SEAP expression: read at 30 minutes
Excerpt: To screen for inhibitors for Tat regulated transactivation (Tat-TRS), the secreted placental alkaline phosphatase (SEAP) reporter gene is put under the control of HIV-1 LTR promoter in the plasmid pBC12HIV/SEAP. The Tat-coded activity is supplied by a second plasmid construct pBC12/CMV/t2. […] An inhibitor should cause reduction of the SEAP activity which is due to inhibition of the expression of the SEAP mRNA via transactivation of the HIV-1 LTR promoter by Tat protein (Tat-TRS).
For the SEAP assay, test materials were dissolved in 10% DMSO solution made in calcium/magnesium-free PBS. The suspension was centrifuged and the stock solution (10 mg/ml) was filter-sterilized using a Millex®-GS […] filter (Millipore). Appropriate dilutions of the stock solution were prepared in a final DMSO concentration of 0.2% in PBS to obtain the various concentrations of test compounds.
Briefly, a day before DNA transfection, Linbro® 24 flat bottom well of 17-mm diameter plates were pretreated with 0.5 ml sterile solution of 0.1% gelatin. The plates were kept in the hood for 1 hour (all transfection steps were performed in the hood, unless otherwise stated). The gelatin solution was aspirated and the plates were washed with 0.5 ml of IMDM supplemented with 10% fetal calf serum and antibiotics (complete medium). […] DNA transfection was performed at 30-50% cell confluency. The stock solution of the Transfectam reagent, DOGS, was prepared according to the manufacturer's advice at 1 mg/0.380 ml ([…] or 3.4 mM) in 10% (v/v) ethanol in distilled water.
The transfection cocktail consisted of two solutions prepared in sterile tubes: • a) Solution A contained a sterile 150 mM NaCl solution+plasmid DNAs (non selected/selected gene in 2:1 ratio): 0.35 μg of pBC12/HIV/SEAP per well+0.175 μg of pBC12/CMB/t2 (coding for Tat function) per well. • b) Solution B Contained an equal volume of 150 mM NaCl and a volume of Transfectame determined to be 6 times the total amount of DNAS. Solutions A and B were homogenized and immediately mixed.
Ten minutes were allowed for the reaction to proceed. Meanwhile, the growth medium was removed from the subconf luent COS cells and 300 μl (100 μl of complete IMDM+200 μl serum-free medium) were added to each well. The transfection cocktail was dispensed to the wells in equal volume. Control samples containing no DNA were similarly treated and received sterile 150 mM NaCl solution alone. All samples were incubated for 10 and 12 hours after which 700 μl of complete growth medium were added. Test compounds prepared in 5% DMSO/Ca-Mg-free PBS (for non-water-soluble materials) were immediately added at various concentrations to the wells. Drug-untreated control samples received 5% DMSO/PBS solution alone (final DMSO concentration of 0.2%). All samples were then incubated for an additional 48 hours after which 300 μl of each culture supernatant was removed for SEAP analysis.
Briefly, a 250-μl aliquot was removed from COS cell culture supernatants, heated at 65° C. for 5 minutes to selectively inactivate endogenous phosphatase (SEAP is heat stable) and centrifuged in a microfuge for 2 minutes. One hundred μl of 2×SEAP assay buffer (1.0 M diethanolamine, pH 9.8; 0.5 mM MgCl2; 10 mm L-homoarginine) were added to 100-μl aliquot of the samples. The solution was mixed and transferred into a 96-well flat-bottom culture dish (Corning). Twenty μl of pre-warmed substrate solution (120 mM p-nitrophenylphosphate dissolved in 1×SEAP assay buffer) were dispensed with a multipipeter into each well containing the reaction mixture. A405 of the reaction was read at 5-minute intervals at 37° C. for 60 minutes using an EL340i microplate reader (Bio-tek Instruments, Inc.) with 5-second automatic shakings before each reading. The change in absorbance was plotted against time in the standard assay of SEAP induction.

HIV-1 = assay: microbe, parasite or virus in culture; conditions: Human immunodeficiency virus 1, CEM-SS, read-out: EC50, concentration that protects XTT formazan production in infected culture to 50% of uninfected, untreated cells
Protocol: Consequently, creosote bush extract was tested at the National Cancer Institute (NCI) for inhibition of HIV-1 cytopathic effects using the soluble-formazan assay (Weislow et al., JNCI 81: 577-586, 1989, the entire contents of which are hereby incorporated by reference and relied upon). In principle, CEM-SS cells (ATCC, Rockville, Md.) are cocultivated with HIV-producing H9 cells. Viruses infect the host CEM-SS cells, replicate and kill most of the CEM-SS cells in a week. If the drug inhibits HIV production, CEM-SS cells are protected from HIV-induced cell death.
In practice, triplicate samples of CEM-SS cells (5000) were plated in 96-well microtiter plate. Appropriate concentrations of test compounds were added in a final volume of 100 μl calcium/magnesium-free PBS in 5% DMSO. Control samples received the compound medium (PBS) alone. Five minutes later, 500 highly infectious HIV-1 producing II9 cells or normal H9 cells were added to the wells containing the appropriate drug concentrations. The microtiter plates were incubated at 37° C. in 95% O2/5% CO2 for 6 days after which a 50-μl mixture of XTT and N-methylphenazonium methosulfate (PMS) was added. The plates were reincubated for additional 4 hours for the color development (XTT formazan production). The plates were sealed, their contents were mixed by automatic shaking and the OD450 of samples was determined in a microplate reader. […]

HSV-Sm44-ACVg = assay: Drug sensitivity against ACV sensitive strain of HSV-1; type: cell-based; conditions: Human alphaherpesvirus 1, read-out: IC50, HSV-Sm44-ACVg
HSV-18m44-CV4r = assay: Drug sensitivity against ACV resistant strain of HSV-1; type: cell-based
Vero cells = assay: Inhibition of growth of Vero cells; type: cell-based; conditions: Chlorocebus sabaeus
HSV-1 ICP4 = assay: Inhibition of HSV-1 ICP4 transactivation in Vero cells; type: cell-based; conditions: Human alphaherpesvirus 1, Vero
HSV-1 [2] = assay: Drug sensitivity against HSV-1 in Vero cells at different viral passages; type: cell-based; conditions: for IC50: Human alphaherpesvirus 1, Vero
Excerpt: Virus which recovered from medium of each passage at IC50 drug concentration were used to infect the subsequent passage of the cells.

HSV-1 [3] = assay: Topical treatment of HSV-1 infected skin of guinea pigs; type: in vivo; conditions: guinea pig; for suppression of HSV-1 replication in infected skin: topical five times per day for five days, ABPS 2 and 4 mg/ml, tetramethoxyl NDGA 60 mg/ml, acyclovir 60 mg/ml
Protocol: It is also noted that tetramethoxyl NDGA 4N has been used in an animal system, i.e. to treat HSV infected skin of guinea pigs.
Two male guinea pigs (350 gm body weight) were used in the guinea pig experiment. The back skin of the animal was shaved and equally divided into six patches. Each skin patch was pinched with seven-pin needles and HSV-1 suspension was applied topically to infect each punched area. Twenty-four hours after infection, three agents (ABPS, 2 mg/ml, ABPS 4 mg/ml, tetramethoxyl NDGA, 4N 60 mg/ml and acyclovir 60 mg/ml) were applied to the infected areas five times per day for five days. Picture (FIG. 8) was taken 96 hours following infection.

HSV-1 [4] = assay: Inhibition of HSV-1 replication in Vero cells; type: cell-based; conditions: Human alphaherpesvirus 1, Vero
[5] = read-out: EC50 (concentration exhibiting 50% inhibition) of Tat regulated HIV transactivation, SEAP expression
[6] = read-out: EC50 of Tat regulated HIV transactivation, SEAP expression
[7] = Mal 4 at 9.5 μm, NDGA at 9.9 μm
[8] = Mal 4 at 31.3 μm, NDGA at 32.6 μm
[9] = Mal 4 at 62.7 μm, NDGA at 65.2 μm
[10] = Human alphaherpesvirus 1, read-out: IC50, HSV-18m44-CV4r
[11] = read-out: IC50 against HSV-1 in Vero Cells, Passage 1
[12] = read-out: IC50 against HSV-1 in Vero Cells, Passage 2
[13] = read-out: IC50 against HSV-1 in Vero Cells, Passage 3
[14] = read-out: IC50 against HSV-1 in Vero Cells, Passage 4
[15] = read-out: IC50 against HSV-1 in Vero Cells, Passage 5
[16] = read-out: IC50 against HSV-1 in Vero Cells, Passage 10

Compound: COc1ccc(CC(C)C(C)Cc2ccc(O)c(O)c2)cc1O (stereo not shown) [Mal 4, 1-(3,4-dihydroxyphenyl)-4-(3-hydroxy-4-methoxyphenyl)-2,3-dimethylbutane]
- IC50 (uninfected CEM-SS cells): 100 µg/mL and 325 µM
- EC50 [1, 5]: 8 µg/mL
- EC50 [1, 6]: 25 µM
- Inhibition of Tat-induced SEAP expression [1, 7]: 13.6%
- Inhibition of Tat-induced SEAP expression [1, 8]: 60.4%
- Inhibition of Tat-induced SEAP expression [1, 9]: 92%
- Inhibition of Tat-induced SEAP expression ([1]; Mal 4 at 95 μm, NDGA at 99 μm): 100%
- EC50 (HIV-1): 4.25 µg/mL and 13.4 µM

Compound: COc1ccc(C[C@@H](C)[C@@H](C)Cc2ccc(OC)c(OC)c2)cc1OC [Tetramethoxyl NDGA, tetramethoxyl nordihydroguaiaretic acid]
- IC50 (HSV-Sm44-ACVg): 6.9 µM
- IC50 (HSV-18m44-CV4r; [10]): 6.9 µM
- IC50 (HSV-18m44-CV4r; Human alphaherpesvirus 1, read-out: IC50 against acyclovir resistant strain (HSV-1 SM44-CV4r)): 6.9 µM
- IC50 (Vero cells): 142 µM
- inhibition at 4.37 µM (Vero cells; 4.37 μM): 1.27%
- inhibition at 8.75 µM (Vero cells; 8.75 μM): 3.18%
- inhibition at 17.5 µM (Vero cells; 17.5 μM): 7.64%
- inhibition at 35 µM (Vero cells; 35 μM): 7.64%
- inhibition at 70 µM (Vero cells; 70 μM): 9.55%
- inhibition at 140 µM (Vero cells; 140 μM): 44%
- inhibition at 280 µM (Vero cells; 280 μM): 79.6%
- IC50 (HSV-1 ICP4): 33 µM
- inhibition at 20 µM (HSV-1 ICP4; 20 μM): 8%
- inhibition at 30 µM (HSV-1 ICP4; 30 μM): 30%
- inhibition at 40 µM (HSV-1 ICP4; 40 μM): 35%
- inhibition at 50 µM (HSV-1 ICP4; 50 μM): 52%
- inhibition at 60 µM (HSV-1 ICP4; 60 μM): 64%
- inhibition at 70 µM (HSV-1 ICP4; 70 μM): 68%
- inhibition at 80 µM (HSV-1 ICP4; 80 μM): 78%
- IC50 (HSV-1 [2]; read-out: IC50 against HSV-1, essentially the same from first passage to tenth passage, first to tenth passage in vero cells): ~10 µM
- IC50 (HSV-1 [2]; [11]): 11.7 µM
- IC50 (HSV-1 [2]; [12]): 4.4 µM
- IC50 (HSV-1 [2]; [13]): 8.2 µM
- IC50 (HSV-1 [2]; [14]): 5.9 µM
- IC50 (HSV-1 [2]; [15]): 9.9 µM
- IC50 (HSV-1 [2]; [16]): 10 µM
- drug resistance of HSV virus toward the drug (HSV-1 [2]; following ten viral passages in vero cells): showed no drug resistance
- HSV-1 growth at infected skin areas (HSV-1 [3]; 60 mg/ml, daily topical treatment, five days): eliminated HSV-1 growth completely
- suppression of HSV-1 replication in infected skin (HSV-1 [3]): effective
- IC50 (HSV-1 [4]): 7.7 µM
- inhibition at 0.437 µM (HSV-1 [4]; 0.437 μM): < 0%
- inhibition at 0.875 µM (HSV-1 [4]; 0.875 μM): < 0%
- inhibition at 1.75 µM (HSV-1 [4]; 1.75 μM): < 0%
- inhibition at 3.5 µM (HSV-1 [4]; 3.5 μM): 20%
- inhibition at 7 µM (HSV-1 [4]; 7 μM): 40%
- inhibition at 14 µM (HSV-1 [4]; 14 μM): 97.5%

Compound: Nc1nc2c(ncn2COCCO)c(=O)[nH]1 [ACV, acyclovir, reference compound]
- IC50 (HSV-Sm44-ACVg): < 6.9 µM
- IC50 (HSV-18m44-CV4r; [10]): 118 µM
- IC50 (HSV-1 [2]; [11]): 7.5 µM
- IC50 (HSV-1 [2]; [12]): 37.8 µM
- IC50 (HSV-1 [2]; [13]): > 88.8 µM
- IC50 (HSV-1 [2]; [14]): 138 µM
- IC50 (HSV-1 [2]; [15]): > 220 µM
- IC50 (HSV-1 [2]; [16]): 440 µM
- IC50 (HSV-1 [2]; read-out: concentration required to inhibit HSV-1, 10th passage): 440 µM
- IC50 (HSV-1 [2]; read-out: concentration required to inhibit HSV-1, first passage): 7.5 µM
- suppression of HSV-1 replication in infected skin (HSV-1 [3]): effective

Compound: CC(Cc1ccc(O)c(O)c1)C(C)Cc1ccc(O)c(O)c1 (stereo not shown) [NDGA, 1,4-bis-(3,4-dihydroxyphenyl)-2,3-dimethylbutane]
- EC50 [1, 5]: 6 µg/mL
- EC50 [1, 6]: 20 µM
- Inhibition of Tat-induced SEAP expression [1, 7]: 17.0%
- Inhibition of Tat-induced SEAP expression [1, 8]: 73.8%
- Inhibition of Tat-induced SEAP expression [1, 9]: 88.1%
- Inhibition of Tat-induced SEAP expression ([1]; Mal 4 at 95 μm, NDGA at 99 μm): 92.9%
